Data published in patent US6372446B1, “Method of selectively determining a fungal biomass” (Mycometer ApS, priority 1997, dated 2002).

Assays:
Experiment in all cases: Screening of fungi for enzyme activity with 4-methylumbelliferone-labelled substrates
Assay type in all cases: cell-based
[1] = system: Penicillium commune (IBT 13713); settings: substrate 10 μM, 25° C., pH 5; for Enzyme activity: amount of released 4-methylumbelliferone: mineral medium; for Enzyme activity: amount of released 4-methylumbelliferone during 5 hours of incubation: vegetable juice medium
[2] = system: Sodaria fimicola (AAS 17); settings: substrate 10 μM, 25° C., pH 5; for Enzyme activity: amount of released 4-methylumbelliferone: mineral medium; for Enzyme activity: amount of released 4-methylumbelliferone during 5 hours of incubation: vegetable juice medium
[3] = system: Rhizomucor pusillus (AAS 300); settings: substrate 10 μM, 25° C., pH 5; for Enzyme activity: amount of released 4-methylumbelliferone: mineral medium; for Enzyme activity: amount of released 4-methylumbelliferone during 5 hours of incubation: vegetable juice medium
[4] = system: Penicillium solitum (IBT 13771); settings: substrate 10 μM, 25° C., pH 5; for Enzyme activity: amount of released 4-methylumbelliferone: mineral medium; for Enzyme activity: amount of released 4-methylumbelliferone during 5 hours of incubation: vegetable juice medium
[5] = system: Trametes versicolor (AGM 24); settings: substrate 10 μM, 25° C., pH 5; for Enzyme activity: amount of released 4-methylumbelliferone: mineral medium; for Enzyme activity: amount of released 4-methylumbelliferone during 5 hours of incubation: vegetable juice medium
[6] = system: Paecilomyces farinosus (AGM 5); settings: substrate 10 μM, 25° C., pH 5; for Enzyme activity: amount of released 4-methylumbelliferone: mineral medium; for Enzyme activity: amount of released 4-methylumbelliferone during 5 hours of incubation: vegetable juice medium
[7] = system: Aspergillus oryzae (AGM 11); settings: substrate 10 μM, 25° C., pH 5; for Enzyme activity: amount of released 4-methylumbelliferone: mineral medium; for Enzyme activity: amount of released 4-methylumbelliferone during 5 hours of incubation: vegetable juice medium
Eurotium sp. (AAS 36) = settings: substrate 10 μM, 25° C., pH 5; for Enzyme activity: amount of released 4-methylumbelliferone: mineral medium; for Enzyme activity: amount of released 4-methylumbelliferone during 5 hours of incubation: vegetable juice medium
[8] = system: Mucor racemosus (AAS 310); settings: substrate 10 μM, 25° C., pH 5; for Enzyme activity: amount of released 4-methylumbelliferone: mineral medium; for Enzyme activity: amount of released 4-methylumbelliferone during 5 hours of incubation: vegetable juice medium
[9] = system: Ascobolus crenulatus (AAS 1); settings: substrate 10 μM, 25° C., pH 5; for Enzyme activity: amount of released 4-methylumbelliferone: mineral medium; for Enzyme activity: amount of released 4-methylumbelliferone during 5 hours of incubation: vegetable juice medium
[10] = system: Aspergillus versicolor (IBT 13738); settings: substrate 10 μM, 25° C., pH 5; for Enzyme activity: amount of released 4-methylumbelliferone: mineral medium; for Enzyme activity: amount of released 4-methylumbelliferone during 5 hours of incubation: vegetable juice medium
[11] = system: Aureobasidium pullulans (QM 3092); settings: substrate 10 μM, 25° C., pH 5; for Enzyme activity: amount of released 4-methylumbelliferone during 5 hours of incubation: Aureobasidium pulluians (QM 3092), vegetable juice medium; for Enzyme activity: amount of released 4-methylumbelliferone: Aureobasidium pullulans (QM 3092), mineral medium
[12] = system: Schizophyllum commune (AGM 25); settings: substrate 10 μM, 25° C., pH 5; for Enzyme activity: amount of released 4-methylumbelliferone: mineral medium; for Enzyme activity: amount of released 4-methylumbelliferone during 5 hours of incubation: vegetable juice medium
[13] = system: Cladosporium herbarum (AGM 8); settings: substrate 10 μM, 25° C., pH 5; for Enzyme activity: amount of released 4-methylumbelliferone: mineral medium; for Enzyme activity: amount of released 4-methylumbelliferone during 5 hours of incubation: vegetable juice medium

Cc1cc(=O)oc2cc(O[C@H]3O[C@H](CO)[C@@H](O)[C@H](O)[C@H]3O)ccc12 [substrate 7, 4-methylumbelliferyl α-D-glucoside]
0 µmol: Enzyme activity: amount of released 4-methylumbelliferone [1] | Enzyme activity: amount of released 4-methylumbelliferone during 5 hours of incubation [1] | Enzyme activity: amount of released 4-methylumbelliferone [2] | Enzyme activity: amount of released 4-methylumbelliferone [3] | Enzyme activity: amount of released 4-methylumbelliferone [4] | Enzyme activity: amount of released 4-methylumbelliferone during 5 hours of incubation [4] | Enzyme activity: amount of released 4-methylumbelliferone [5] | Enzyme activity: amount of released 4-methylumbelliferone during 5 hours of incubation [5] | Enzyme activity: amount of released 4-methylumbelliferone [6] | Enzyme activity: amount of released 4-methylumbelliferone during 5 hours of incubation [6] | Enzyme activity: amount of released 4-methylumbelliferone [7] | Enzyme activity: amount of released 4-methylumbelliferone during 5 hours of incubation [7] | Enzyme activity: amount of released 4-methylumbelliferone (Eurotium sp. (AAS 36)) | Enzyme activity: amount of released 4-methylumbelliferone during 5 hours of incubation (Eurotium sp. (AAS 36)) | Enzyme activity: amount of released 4-methylumbelliferone [8] | Enzyme activity: amount of released 4-methylumbelliferone during 5 hours of incubation [8] | Enzyme activity: amount of released 4-methylumbelliferone [9] | Enzyme activity: amount of released 4-methylumbelliferone during 5 hours of incubation [9] | Enzyme activity: amount of released 4-methylumbelliferone [10] | Enzyme activity: amount of released 4-methylumbelliferone during 5 hours of incubation [10] | Enzyme activity: amount of released 4-methylumbelliferone [12] | Enzyme activity: amount of released 4-methylumbelliferone during 5 hours of incubation [12] | Enzyme activity: amount of released 4-methylumbelliferone [13] | Enzyme activity: amount of released 4-methylumbelliferone during 5 hours of incubation [13]
*** (2 ≦ ***): Enzyme activity: amount of released 4-methylumbelliferone during 5 hours of incubation [11] | Enzyme activity: amount of released 4-methylumbelliferone [11]
** (1 ≦ ** 2): Enzyme activity: amount of released 4-methylumbelliferone during 5 hours of incubation [2]
* (0.4 ≦ * < 1): Enzyme activity: amount of released 4-methylumbelliferone during 5 hours of incubation [3]

Cc1cc(=O)oc2cc(O[C@@H]3O[C@H](CO)[C@@H](O[C@@H]4O[C@H](CO)[C@H](O)[C@H](O)[C@H]4O)[C@H](O)[C@H]3O)ccc12 [substrate 8, 4-methylumbelliferyl β-D-lactoside]
0 µmol: Enzyme activity: amount of released 4-methylumbelliferone [1] | Enzyme activity: amount of released 4-methylumbelliferone during 5 hours of incubation [1] | Enzyme activity: amount of released 4-methylumbelliferone [2] | Enzyme activity: amount of released 4-methylumbelliferone [3] | Enzyme activity: amount of released 4-methylumbelliferone [4] | Enzyme activity: amount of released 4-methylumbelliferone during 5 hours of incubation [4] | Enzyme activity: amount of released 4-methylumbelliferone [5] | Enzyme activity: amount of released 4-methylumbelliferone during 5 hours of incubation [5] | Enzyme activity: amount of released 4-methylumbelliferone [6] | Enzyme activity: amount of released 4-methylumbelliferone during 5 hours of incubation [6] | Enzyme activity: amount of released 4-methylumbelliferone [7] | Enzyme activity: amount of released 4-methylumbelliferone (Eurotium sp. (AAS 36)) | Enzyme activity: amount of released 4-methylumbelliferone during 5 hours of incubation (Eurotium sp. (AAS 36)) | Enzyme activity: amount of released 4-methylumbelliferone [8] | Enzyme activity: amount of released 4-methylumbelliferone during 5 hours of incubation [8] | Enzyme activity: amount of released 4-methylumbelliferone [9] | Enzyme activity: amount of released 4-methylumbelliferone during 5 hours of incubation [9] | Enzyme activity: amount of released 4-methylumbelliferone [10] | Enzyme activity: amount of released 4-methylumbelliferone during 5 hours of incubation [10] | Enzyme activity: amount of released 4-methylumbelliferone during 5 hours of incubation [11] | Enzyme activity: amount of released 4-methylumbelliferone [11] | Enzyme activity: amount of released 4-methylumbelliferone [12] | Enzyme activity: amount of released 4-methylumbelliferone [13] | Enzyme activity: amount of released 4-methylumbelliferone during 5 hours of incubation [13]
** (1 ≦ ** 2): Enzyme activity: amount of released 4-methylumbelliferone during 5 hours of incubation [2] | Enzyme activity: amount of released 4-methylumbelliferone during 5 hours of incubation [12]
* (0.4 ≦ * < 1): Enzyme activity: amount of released 4-methylumbelliferone during 5 hours of incubation [3] | Enzyme activity: amount of released 4-methylumbelliferone during 5 hours of incubation [7]

Cc1cc(=O)oc2cc(O[C@@H]3OC[C@@H](O)[C@H](O)[C@H]3O)ccc12 [substrate 9, 4-methylumbelliferyl β-D-xyloside]
0 µmol: Enzyme activity: amount of released 4-methylumbelliferone [1] | Enzyme activity: amount of released 4-methylumbelliferone [2] | Enzyme activity: amount of released 4-methylumbelliferone during 5 hours of incubation [2] | Enzyme activity: amount of released 4-methylumbelliferone [3] | Enzyme activity: amount of released 4-methylumbelliferone [4] | Enzyme activity: amount of released 4-methylumbelliferone [5] | Enzyme activity: amount of released 4-methylumbelliferone during 5 hours of incubation [5] | Enzyme activity: amount of released 4-methylumbelliferone [6] | Enzyme activity: amount of released 4-methylumbelliferone during 5 hours of incubation [6] | Enzyme activity: amount of released 4-methylumbelliferone [7] | Enzyme activity: amount of released 4-methylumbelliferone (Eurotium sp. (AAS 36)) | Enzyme activity: amount of released 4-methylumbelliferone during 5 hours of incubation (Eurotium sp. (AAS 36)) | Enzyme activity: amount of released 4-methylumbelliferone [8] | Enzyme activity: amount of released 4-methylumbelliferone during 5 hours of incubation [8] | Enzyme activity: amount of released 4-methylumbelliferone [9] | Enzyme activity: amount of released 4-methylumbelliferone during 5 hours of incubation [9] | Enzyme activity: amount of released 4-methylumbelliferone [10] | Enzyme activity: amount of released 4-methylumbelliferone [11] | Enzyme activity: amount of released 4-methylumbelliferone [12] | Enzyme activity: amount of released 4-methylumbelliferone [13] | Enzyme activity: amount of released 4-methylumbelliferone during 5 hours of incubation [13]
*** (2 ≦ ***): Enzyme activity: amount of released 4-methylumbelliferone during 5 hours of incubation [3] | Enzyme activity: amount of released 4-methylumbelliferone during 5 hours of incubation [7] | Enzyme activity: amount of released 4-methylumbelliferone during 5 hours of incubation [10] | Enzyme activity: amount of released 4-methylumbelliferone during 5 hours of incubation [11] | Enzyme activity: amount of released 4-methylumbelliferone during 5 hours of incubation [12]
* (0.4 ≦ * < 1): Enzyme activity: amount of released 4-methylumbelliferone during 5 hours of incubation [1]
** (1 ≦ ** 2): Enzyme activity: amount of released 4-methylumbelliferone during 5 hours of incubation [4]

Cc1cc(=O)oc2cc(O[C@H]3O[C@H](C)[C@H](O)[C@H](O)[C@H]3O)ccc12 [substrate 10, 4-methylumbelliferyl α-D-fucoside]
** (1 ≦ ** 2): Enzyme activity: amount of released 4-methylumbelliferone during 5 hours of incubation [8]
* (0.4 ≦ * < 1): Enzyme activity: amount of released 4-methylumbelliferone [11]
*** (2 ≦ ***): Enzyme activity: amount of released 4-methylumbelliferone during 5 hours of incubation [3]
0 µmol: Enzyme activity: amount of released 4-methylumbelliferone [1] | Enzyme activity: amount of released 4-methylumbelliferone during 5 hours of incubation [1] | Enzyme activity: amount of released 4-methylumbelliferone [2] | Enzyme activity: amount of released 4-methylumbelliferone during 5 hours of incubation [2] | Enzyme activity: amount of released 4-methylumbelliferone [3] | Enzyme activity: amount of released 4-methylumbelliferone [4] | Enzyme activity: amount of released 4-methylumbelliferone during 5 hours of incubation [4] | Enzyme activity: amount of released 4-methylumbelliferone [5] | Enzyme activity: amount of released 4-methylumbelliferone during 5 hours of incubation [5] | Enzyme activity: amount of released 4-methylumbelliferone [6] | Enzyme activity: amount of released 4-methylumbelliferone during 5 hours of incubation [6] | Enzyme activity: amount of released 4-methylumbelliferone [7] | Enzyme activity: amount of released 4-methylumbelliferone during 5 hours of incubation [7] | Enzyme activity: amount of released 4-methylumbelliferone (Eurotium sp. (AAS 36)) | Enzyme activity: amount of released 4-methylumbelliferone during 5 hours of incubation (Eurotium sp. (AAS 36)) | Enzyme activity: amount of released 4-methylumbelliferone [8] | Enzyme activity: amount of released 4-methylumbelliferone [9] | Enzyme activity: amount of released 4-methylumbelliferone during 5 hours of incubation [9] | Enzyme activity: amount of released 4-methylumbelliferone [10] | Enzyme activity: amount of released 4-methylumbelliferone during 5 hours of incubation [10] | Enzyme activity: amount of released 4-methylumbelliferone during 5 hours of incubation [11] | Enzyme activity: amount of released 4-methylumbelliferone [12] | Enzyme activity: amount of released 4-methylumbelliferone during 5 hours of incubation [12] | Enzyme activity: amount of released 4-methylumbelliferone [13] | Enzyme activity: amount of released 4-methylumbelliferone during 5 hours of incubation [13]
